The text below walks through data of PMC10239507, “Development of allosteric and selective CDK2 inhibitors for contraception with negative cooperativity to cyclin binding” (Nature Communications, 2023).

What is called Kd is the free concentration of one partner at which half of the binding sites on the other are occupied at equilibrium, for simple one-to-one binding.

In one experiment the target is human CDK2 (1-298) (Homo sapiens, UniProt P24941). The experiment is described as follows: Isothermal titration calorimetry (ITC).
Experiment [1] concerns the target T1, CDK2 (C118A C177S A93C R157C) (Homo sapiens, UniProt P24941, A93C/C118A/C177S/R157C).
T1 construct: made in house; cyclin A: BL21(DE3)pLysS
Nature of the experiment: Intramolecular FRET assay of CDK2 activation loop position. It is filed as binding.

The test system of the next experiment is CDK/cyclin complexes. Nature of the experiment: Commercial CDK/cyclin kinase activity panel (Reaction Biology). It is filed as biochemical. As to conditions: concentration well above its KD.
The target in the next experiment is T2, GST-tagged CDK2 (Homo sapiens, UniProt P24941).
T2 construct: The gene encoding human CDK2 (1-298) was custom-synthesized; made in house; host or cells: E. coli BL21 DE3 RIPL
The experiment is described as follows: Surface plasmon resonance (SPR), CDK2. The class given is binding.

“Also recorded” adds a separate entry of the source.

For the molecule `O=C(O)c1cc(C(F)(F)F)ccc1NCCc1c[nH]c2cc(Cl)ccc12` [Compound 4, 2-((2-(6-Chloro-1H-indol-3-yl)ethyl)amino)−5-(trifluoromethyl)benzoic Acid], the Kd at human CDK2 (1-298) is 31 nM. Also, on human CDK2 (1-298) (ITC, 25 °C), the “T∆S” value was found to be 4.8 kcal/mol, the “n (binding stoichiometry)” value worked out at 1.39 and the “∆H” value is -5.5 kcal/mol. This molecule had a Kd in experiment [1] of 280 nM. For the same molecule, the “inhibition of CDK/cyclin complexes” value in the experiment with CDK/cyclin complexes was “poorly inhibits; also recorded: does not substantially inhibit any CDK/cyclin complex”.

Consider “cyclin: Bovine cyclin A (171-432 with a C-terminal 6His tag)”, for which, in the experiment with GST-tagged CDK2, the “fold slower dissociation rate than the allosteric inhibitors” value is listed as not below 10 fold.
